Laboratory results reported in US6656937B2, “Substituted glutarimides and their use as inhibitors of IL-12 production” (Gruenenthal, GmbH, priority 2000, dated 2003).
Converted amounts (≈) assume the structure as drawn.

Experiments:
[1] = test system: IL-12 production by LPS-activated monocytes; experiment: Stimulation of human monocytes with lipopolysaccharide for secretion of IL-12 (IL-12 sandwich ELISA of culture supernatants); assay type: cell-based; settings: CD14-positive human monocytes, 1 h preincubation with test substance, 20 μg/ml LPS from E. coli, 24 hours; for IC50: Monocyte, read-out: Inhibition of IL-12 production IC50
Protocol: Human monocytes were isolated from peripheral blood mononuclear cells (PBMC) obtained by means of a Ficoll density-gradient centrifugation of heparinized whole blood. To this end, the PBMC were incubated with a monoclonal antibody directed against the monocyte-specific surface molecule CD14 and to which superparamagnetic microbeads (Miltenyi Biotech, Bergisch Gladbach) are coupled. In order for the marked monocytes to be positively selected from the mixture of cells in the PBMC, the total cell suspension was transferred to a column with a ferromagnetic carrier matrix and the column placed in a magnetic field. This caused the cells loaded with microbeads to be bonded to the carrier matrix, whilst unmarked cells passed through the column and were discarded. After removing the matrix from the magnetic field, the antibody-loaded cells were eluted by rinsing the now demagnetised column with buffer. The purity of this CD 14-positive monocyte population thus obtained was around 95 to 98%. These monocytes were incubated in a density of 10^6 cells/ml culture medium (RPMI, supplemented with 10% fetal calf serum) with the test substances dissolved in DMSO for one hour at 37° C. and 5% CO2.20 μg/ml LPS from E. coli were then added. After 24 hours, cell-free culture supernatants were taken and tested for their IL-12 content.
The concentration of IL-12 in the cell culture supernatants was determined by means of sandwich ELISA using two anti-IL-12 monoclonal antibodies (Biosource Europe, Fleurus, Belgium). A reference standard curve with human IL-12 was included. The detection limit of the IL-12 ELISA was 10 pg/ml.

| Molecule | Inhibition of IL-12 production IC50 [1] [µg/mL] | IC50 [1] [µg/mL] | melting point [°C] | Inhibition of IL-12 production Maximum (%) [1] [%] |
| --- | --- | --- | --- | --- |
| O=C1CC[C@H](NCc2ccccc2C(=O)O)C(=O)N1 [Example 6.1, 2-[(3S)-(2,6-dioxopiperidin-3-ylamino)methyl]benzoic acid] |  | 1 (≈ 3.81 µM) |  | 85 |
| O=C1CC[C@@H](NCc2ccccc2C(=O)O)C(=O)N1 [Example 6.2, 2-[(3R)-(2,6-dioxopiperidin-3-ylamino)methyl]benzoic acid] |  | 1 (≈ 3.81 µM) |  | 75 |
| CCN(CC)C(=O)c1ccccc1CN[C@H]1CCC(=O)NC1=O [Example 7, 2-[(3S)-(2,6-dioxopiperidin-3-ylamino)methyl]-N,N-diethylbenzamide] |  | 1.5 (≈ 4.73 µM) |  | 90 |
| O=C1CC[C@H](NCc2ccccc2C(=O)N2CCOCC2)C(=O)N1 [Example 8.1] | 1.8 |  |  | 90 |
| NC(=O)c1ccccc1CN[C@H]1CCC(=O)NC1=O [Example 8.3, 2-[(3S)-(2,6-dioxopiperidin-3-ylamino)methyl]benzamide] |  | 0.15 (≈ 0.574 µM) |  | 90 |
| CCNC(=O)c1ccccc1CN[C@H]1CCC(=O)NC1=O [Example 8.4, 2-[(3S)-(2,6-dioxopiperidin-3-ylamino)methyl]-N-ethyl benzamide] | 0.9 |  |  | 80 |
| O=C1CC[C@H](NCc2ccccc2C(=O)N2CCCC2)C(=O)N1 [Example 8.5] | 2.0 |  |  | 80 |
| NNC(=O)c1ccccc1CN[C@H]1CCC(=O)NC1=O [Example 8.6, 2-[(3S)-(2,6-dioxopiperidin-3-ylamino)methyl]benzoic acid hydrazide] |  | 0.04 (≈ 0.145 µM) |  | 90 |
| O=C1CC[C@H](NCc2ccccc2C(=O)Nc2ccccc2)C(=O)N1 [Example 8.7, 2-[(3S)-(2,6-dioxopiperidin-3-ylamino)methyl]-N-phenylbenzamide] |  | 0.7 (≈ 2.07 µM) |  | 55 |
| O=C1CC[C@@H](NCc2ccccc2C(=O)Nc2ccccc2)C(=O)N1 [Example 8.10, 2-[(3R)-(2,6-dioxopiperidin-3-ylamino)methyl]-N-phenyl benzamide] |  |  |  | 50 |
| CCN(CC)C(=O)c1ccccc1CN[C@@H]1CCC(=O)NC1=O [Example 8.11, 2-[(3R)-(2,6-dioxopiperidin-3-ylamino)methyl]-N,N-diethyl benzamide] | 0.2 |  |  | 90 |
| NC(=O)c1ccccc1CN[C@@H]1CCC(=O)NC1=O [Example 8.12, 2-[(3R)-(2,6-dioxopiperidin-3-ylamino)methyl]benzamide] |  | 1 (≈ 3.83 µM) |  | 84 |
| CC(=O)Nc1ccccc1CNC1CCC(=O)NC1=O (stereo not shown) [Example 16] | 3.0 |  |  | 95 |
| O=CNc1ccccc1CNC1CCC(=O)NC1=O (stereo not shown) [Example 17, N-{2-[(2,6-dioxopiperidin-3-ylamino)methyl]phenyl}Formamide] |  | 0.02 (≈ 0.0765 µM) |  | 98 |
| COC(=O)c1cc(SCC2CCC(=O)NC2=O)ccc1[N+](=O)[O-] (stereo not shown) [Example 18, 3-(2,6-dioxopiperidin-3-ylmethylsulfanyl)-6-nitro Methylbenzoate] | 3.0 |  |  | 57 |
| COC(=O)c1cc(SCC2CCC(=O)NC2=O)ccc1N (stereo not shown) [Example 19, 2-amino-5-(2,6-dioxopiperidin-3-ylmethylsulfanyl) methyl benzoate] | 5.0 |  |  | 66 |
| {2-[(3S)-(2,6-dioxopiperidin-3-ylamino)methyl]benzoylamino}methyl acetate [Example 8.2] | 1.8 |  |  | 70 |

Second part, led by results:

| Inhibition of IL-12 production IC50 [1] [µg/mL] | IC50 [1] [µg/mL] | melting point [°C] | Molecule | Inhibition of IL-12 production Maximum (%) [1] [%] |
| --- | --- | --- | --- | --- |
| 1.5 |  |  | 2-[(3S)-(2,6-dioxopiperidin-3-ylamino)methyl]benzyl benzoate [Example 9.2] | 82 |
| 0.1 |  |  | COC(=O)c1ccccc1CN[C@H]1CCC(=O)NC1=O [Example 9.1, 2-[(3S)-(2,6-dioxopiperidin-3-ylamino)methyl]methyl benzoate] | 90 |
|  |  | 203 to 206 | NC(=O)c1ccccc1NCC1CCC(=O)NC1=O (stereo not shown) [Example 11.15, 2-[(2,6-dioxopiperidin-3-ylmethyl)amino]benzamide] |  |
|  |  | 160 | CC(=O)c1ccc(NCC2CCC(=O)NC2=O)cc1 (stereo not shown) [Example 11.16, 3-[(4-acetylphenylamino)methyl]piperidine-2,6-dione] |  |
|  |  | 152 to 158 | O=C1CCC(CNc2cccc(C(=O)c3ccccc3)c2)C(=O)N1 (stereo not shown) [Example 11.17, 3-[(3-benzoylphenylamino)methyl]piperidine-2,6-dione] |  |
|  |  | 78 | O=C1CCC(CSCCc2ccccc2)C(=O)N1 (stereo not shown) [Example 13.2, 3-phenethylsulfanylmethyl piperidine-2,6-dione] |  |
| 6.0 |  |  | COC(=O)c1ccccc1SCC1CCC(=O)NC1=O (stereo not shown) [Example 13.3, 2-(2,6-dioxopiperidin-3-ylmethyl)sulfanyl) methyl benzoate] | 50 |
